Where two headings read alike, the source gives them in different places.
Key:
[1] = test system: Amaranthus rudis (AMATA), tall water hemp; assay: Postemergence herbicide evaluation, growth of Amaranthus rudis (AMATA); assay type: in vivo; details: for pest or weed control at 280 g/ha / pest or weed control at 560 g/ha: Amaranthus tuberculatus, post-emergence, read-out: Ave. AMATA, percent reduction in plant size relative to the untreated control
[2] = test system: weeds ABUTH, AMATA, AMBEL, CHEAL, ERICA; assay: Postemergence herbicide evaluation, overall average % weed control (ABUTH, AMATA, AMBEL, CHEAL, ERICA); assay type: in vivo; details: post-emergence, read-out: Overall Ave % Weed Control; for pest or weed control at 280 g/ha: 280 g ae/ha; for pest or weed control at 560 g/ha: 560 g ae/ha
[3] = Volatility of compounds measured by thermogravimetric analysis (TGA); assay type: physicochemical
[4] = test system: glyphosate resistant Conyza canadensis (L.) (ERICA), horseweed; assay: Postemergence herbicide evaluation, growth of Conyza canadensis (ERICA); assay type: in vivo; details: Erigeron canadensis, post-emergence, read-out: Ave. ERICA, percent reduction in plant size relative to the untreated control; for pest or weed control at 280 g/ha: 280 g ae/ha; for pest or weed control at 560 g/ha: 560 g ae/ha
[5] = test system: Chenopodium album (CHEAL), common lambsquarters; assay: Postemergence herbicide evaluation, growth of Chenopodium album (CHEAL); assay type: in vivo; details: Chenopodium album, post-emergence, read-out: Ave. CHEAL, percent reduction in plant size relative to the untreated control; for pest or weed control at 280 g/ha: 280 g ae/ha; for pest or weed control at 560 g/ha: 560 g ae/ha
[6] = test system: Ambrosia artemisiifolia (AMBEL), common ragweed; assay: Postemergence herbicide evaluation, growth of Ambrosia artemisiifolia (AMBEL); assay type: in vivo; details: Ambrosia artemisiifolia, post-emergence, read-out: AVE. AMBEL, percent reduction in plant size relative to the untreated control; for pest or weed control at 280 g/ha: 280 g ae/ha; for pest or weed control at 560 g/ha: 560 g ae/ha
[7] = test system: Abutilon theophrasti (ABUTH), velvetleaf; assay: Postemergence herbicide evaluation, growth of Abutilon theophrasti (ABUTH); assay type: in vivo; details: for pest or weed control at 560 g/ha: 560 g ae/ha

O=C(COc1ccc(Cl)cc1Cl)Oc1cncnc1 [Compound E14, Pyrimidin-5-yl 2-(2,4-dichlorophenoxy)acetate]
Ave. AMATA, percent reduction in plant size relative to the untreated control ([1]; 280 g ae/ha, 21 DAA): 92.5% | Ave. AMATA, percent reduction in plant size relative to the untreated control ([1]; 560 g ae/ha, 7 DAA): 98.5% | pest or weed control at 280 g/ha ([1]; 168 h, 280 g ae/ha, 7 DAA): 89% | pest or weed control at 280 g/ha ([1]; 336 h, 280 g ae/ha, 14 DAA): 90% | pest or weed control at 560 g/ha ([1]; 336 h, 560 g ae/ha, 14 DAA): 97% | pest or weed control at 560 g/ha ([1]; 504 h, 560 g ae/ha, 21 DAA): 100% | pest or weed control at 280 g/ha ([2]; 168 h, 7 DAA): 78.3% | pest or weed control at 560 g/ha ([2]; 168 h, 7 DAA): 81.2% | pest or weed control at 280 g/ha ([2]; 336 h, 14 DAA): 86% | pest or weed control at 560 g/ha ([2]; 336 h, 14 DAA): 92.7% | pest or weed control at 280 g/ha ([2]; 504 h, 21 DAA): 96.2% | pest or weed control at 560 g/ha ([2]; 504 h, 21 DAA): 99.2% | TGA Data (rate of weight loss, volatility) [3]: 0.0575 µg/min | pest or weed control at 280 g/ha ([4]; 168 h, 7 DAA): 75% | pest or weed control at 560 g/ha ([4]; 168 h, 7 DAA): 85% | pest or weed control at 280 g/ha ([4]; 336 h, 14 DAA): 92.5% | pest or weed control at 560 g/ha ([4]; 336 h, 14 DAA): 98% | pest or weed control at 280 g/ha ([4]; 504 h, 21 DAA): 96% | pest or weed control at 560 g/ha ([4]; 504 h, 21 DAA): 99% | pest or weed control at 280 g/ha ([5]; 168 h, 7 DAA): 80% | pest or weed control at 560 g/ha ([5]; 168 h, 7 DAA): 77.5% | pest or weed control at 280 g/ha ([5]; 336 h, 14 DAA): 90% | pest or weed control at 560 g/ha ([5]; 336 h, 14 DAA): 92.5% | pest or weed control at 280 g/ha ([5]; 504 h, 21 DAA): 95% | pest or weed control at 560 g/ha ([5]; 504 h, 21 DAA): 100% | pest or weed control at 280 g/ha ([6]; 168 h, 7 DAA): 82.5% | pest or weed control at 560 g/ha ([6]; 168 h, 7 DAA): 77.5% | pest or weed control at 280 g/ha ([6]; 336 h, 14 DAA): 92.5% | pest or weed control at 560 g/ha ([6]; 336 h, 14 DAA): 98.5% | pest or weed control at 280 g/ha ([6]; 504 h, 21 DAA): 100% | pest or weed control at 560 g/ha ([6]; 504 h, 21 DAA): 99.5% | AVE. ABUTH, percent reduction in plant size relative to the untreated control ([7]; 280 g ae/ha, 7 DAA): 65% | AVE. ABUTH, percent reduction in plant size relative to the untreated control ([7]; 280 g ae/ha, 14 DAA): 65% | pest or weed control at 560 g/ha ([7]; Abutilon theophrasti, post-emergence, 168 h, 7 DAA, read-out: AVE. ABUTH, percent reduction in plant size relative to the untreated control): 67.5% | pest or weed control at 560 g/ha ([7]; Abutilon theophrasti, post-emergence, 336 h, 14 DAA, read-out: AVE. ABUTH, percent reduction in plant size relative to the untreated control): 77.5% | pest or weed control at 280 g/ha ([7]; Abutilon theophrasti, post-emergence, 504 h, 280 g ae/ha, 21 DAA, read-out: AVE. ABUTH, percent reduction in plant size relative to the untreated control): 97.5% | pest or weed control at 560 g/ha ([7]; Abutilon theophrasti, post-emergence, 504 h, 21 DAA, read-out: AVE. ABUTH, percent reduction in plant size relative to the untreated control): 97.5%
